Holding throughout (assay type): in vivo, mice
In assay [1] the test system is MCA205 tumors. The experiment in a line: Tumor growth in fibrosarcoma model, ketotifen, doxorubicin, anti-PD-L1. To be noted: for tumor growth: monotherapy. The procedure: (§1) A fibrosarcoma syngeneic tumor model was generated by subcutaneous implantation of 2.5×10^5 MCA205 cells in 50 μL of serum-free medium into the flank of 6-week old C57BL/6 female mice. A osteosarcoma syngeneic tumor model was generated by implanting K7M2 wt tumor chunks into the fat pad of 6-week old BALB/c female mice.
(§2) Mice bearing sarcoma tumors were pre-treated with 10 mg/kg daily ketotifen followed by three or four doses of doxorubicin and/or an immune checkpoint inhibitor anti-PD-L1 antibody. Mouse monoclonal anti-PD-L1 (B7-H1, clone 10F.9G2, BioXCell) was used. Doxorubicin hydrochloride was prepared as a ready-made solution of 2 mg/ml. Anti-PD-L1 antibody was administered at a final dose of 10 mg/kg and doxorubicin at 5 mg/kg.
Mice bearing MCA205 tumors were pretreated with daily ketotifen 10 mg/kg or equal volume of diluent (control group) once the average tumor size reached 40 mm^3, prior to the neoadjuvant treatment. Doxorubicin and anti-PD-L1 combination treatment initiated when tumors reached an average size of 150 mm^3 (day 7) and was administered as i.p. injections every three days (day 7, 10, and 13) for three doses. Daily ketotifen continued until completion of doxorubicin-anti-PD-L1 combination treatment.
(§3) Primary tumors were resected and stored when they reached an average size of 700 mm^3 on day 16 and mice were monitored for re-challenge experiments. Similarly, K7M2 wt tumors were pretreated with daily ketotifen 10 mg/kg or equal volume of diluent (control group) once the average tumor size reached 80 mm^3 (day 18) and continued until completion of neoadjuvant treatment. Doxorubicin and anti-PD-L1 combination treatment started when tumors reached an average size of 150 mm^3 (day 22) and repeated on day 25, 28 and 31. Study ended when tumors reached a mean volume of 550 mm 3 (day 33). Mice were sacrificed and tumors were collected for ex vivo analysis.

Assay [2] relates to K7M2 wt tumors. Kind of assay: Tumor growth in osteosarcoma model, ketotifen, doxorubicin, anti-PD-L1. The note with it: for tumor growth: monotherapy. How it is done:
as §1, §2, §3

Assay [3] concerns MCA205 fibrosarcoma tumors. Kind of assay: Shear wave elastography of tumor elastic modulus, ketotifen. An excerpt:
The mechanotherapeutic potential of ketotifen in reducing matrix stiffness was primarily assessed non-invasively and longitudinally using ultrasound elastography. Assessment of tumor elastic modulus was […] via shear wave elastography using a Philips EPIQ Elite Ultrasound scanner with an eL 18-4 linear array.

Assay [4] concerns MCA205 tumors. The experiment in a line: Contrast-enhanced ultrasound of vascular and functional perfusion, ketotifen. The note with it: during ketotifen treatment. The procedure: (§4) Vascular perfusion and functional perfusion were measured simultaneously during the course of ketotifen treatment, using contrast-enhanced ultrasound in mice bearing MCA205 and mice bearing K7M2 wt tumors.

Assay [5] relates to K7M2 wt tumors. The assay is described as above. The note with it: during ketotifen treatment. The procedure: as §4
Assay [6] relates to MCA205 tumors. Kind of assay: Interstitial fluid pressure (IFP), wick-in-needle technique, ketotifen. The procedure: Interstitial fluid pressure (IFP) was measured in vivo using the “wick-in-needle” technique after mice were anesthetized with i.p. injection of Avertin and prior to tumor excision. Additional information regarding the wick-in-needle technique is described in Dong et al., Involvement of mast cell chymase in burn wound healing in hamsters 2013; 5:643-7 and Shankaran et al. IFNγ and lymphocytes prevent primary tumour development and shape tumour immunogenicity 2001; 410:1107-11, the contents of which are incorporated herein by reference in their entirety.

[7] abbreviates: anti-PD-L1 (10 mg/kg) and/or doxorubicin (5 mg/kg) combined with 10 mg/kg daily ketotifen.

SMILES strings stand for the structures.

`COc1cccc2c1C(=O)c1c(O)c3c(c(O)c1C2=O)C[C@@](O)(C(=O)CO)C[C@@H]3O[C@H]1C[C@H](N)[C@H](O)[C@H](C)O1` [doxorubicin]: the tumor growth entry with MCA205 tumors [1] and in the assay on K7M2 wt tumors [2] was “Neither anti-PD-L1 nor doxorubicin monotherapies significantly affected tumor growth” throughout.
In the case of `CN1CCC(=C2c3ccccc3CC(=O)c3sccc32)CC1` [ketotifen], the “Young's modulus” value in assay [3] (10 mg/kg ketotifen) worked out at 20 kPa. For the same molecule, the “tissue stiffness (ultrasound elastography)” value in assay [3] (10 mg/kg ketotifen compared with other doses) is “reduced tissue stiffness the most”. The functional perfusion entry with MCA205 tumors [4] and in the assay with K7M2 wt tumors [5] was “significant increase” in each case. For the same molecule, the vascular perfusion result in the assay on MCA205 tumors [4] and with K7M2 wt tumors [5] was “significant increase” in each case. The antitumor response result in the assay on MCA205 tumors [1] (setting [7]) and in the assay on K7M2 wt tumors [2] (setting [7]) was “induced a significant antitumor response” in each case. In addition, the tumor growth entry in the assay on MCA205 tumors [1] and in the assay with K7M2 wt tumors [2] was “no antitumor effect” throughout. For the same molecule, the IFP result with MCA205 tumors [6] (10 mg/kg dose of ketotifen compared with other doses) was “greatest effect”; with MCA205 tumors [6] (all doses of ketotifen, daily for 7 days), “reduced the IFP”.

The record behind these values is patent US20240024317A1, “CANCER TREATMENT USING BOSENTAN IN COMBINATION WITH A CHECKPOINT INHIBITOR” (Materia Therapeutics Inc., priority 2020, published 2024).
